Earlier results on twelve compounds are cited in PMC6099102, “Effect of the Nature of Donor Atoms on the Thermodynamic, Kinetic and Relaxation Properties of Mn(II) Complexes Formed With Some Trisubstituted 12-Membered Macrocyclic Ligands” (Frontiers in Chemistry, 2018).

Each structure is given as a SMILES string. Like-named read-outs stand apart in the source and are kept apart here.

For data set [1] the following is noted: cited from earlier work; for Σ log K2H: log K1H + log K2H.
For data set [2] the following is noted: cited from earlier work; for log KML / log KMLH / log KMLOH: Mn(II) complex; for pMn: pH = 7.4, cM = cL = 10^−5 M.
For data set [3] the following is noted: cited from earlier work.
The conditions of data set [4]: cited from earlier work. The source holds these as a separate data set.
The mark [5] stands for this setting: 0.1 M KCl, ref Takács et al., [2014].
The mark [6] stands for this setting: I = 0.1 M KCl, ref Takács et al., [2014].
Where [7] appears, read: ref Tircsó and Woods (in preparation).
[8] abbreviates: I = 0.1 M KCl, ref Forgács et al., [2016].
Setting [9] is: I = 0.1 M KCl, ref Forgács et al., [2017].

For `O=C(O)CN1CCN(CC(=O)O)CCN(CC(=O)O)CCN(CC(=O)O)CC1` [DOTA], in data set [1] (setting [5]), the “log K1H” value is on record as 11.41, the “log K2H” value is on record as 9.83, the “log K3H” value is on record as 4.38 and the “log K4H” value is on record as 4.63. For the same compound, in data set [1] (setting [5]), the “log K5H” value is 1.92, the “log K6H” value is 1.58 and the “Σ log K2H” value was 21.24. In data set [2] (setting [6]), the “log KML” value was 19.44, the “log KMLH” value was 3.96 and the pMn was 9.02. Further, the “k1 (proton-assisted dissociation)” value in data set [3] (ref Drahos et al., [2011]) is 0.040 M⁻¹ s⁻¹.
On to `CC(C(=O)[O-])N1CCN(C(C)C(=O)[O-])CCN(C(C)C(=O)[O-])CCN(C(C)C(=O)[O-])CC1.[Mn+2]` (centres unmarked) [[Mn(DOTMA)]^2−], for which the “k1 (proton-assisted dissociation)” value in data set [3] (1.0 M KCl, proton-assisted dissociation of the [Mn(H2L)] complex, ref Tircsó and Woods (in preparation)) was 3.96e-05 M⁻¹ s⁻¹. Moreover, in data set [3] (1.0 M KCl, ref Tircsó and Woods (in preparation)), the “t1/2 0.1 M HCl” value was 103 min. Besides, the “k0 (spontaneous dissociation)” value in data set [3] (1.0 M KCl, spontaneous dissociation of the [Mn(H2L)] complex, ref Tircsó and Woods (in preparation)) is 0.000104 s⁻¹. For the same compound, in data set [4] (setting [7]), the r1p is 1.76 mM⁻¹ s⁻¹.
On to `O=C([O-])CN1CCN(CC(=O)O)CCN(CC(=O)[O-])CCN(CC(=O)O)CC1.[Mn+2]` [[Mn(H2DOTA)]], for which the r1p in data set [4] (0.5 T field strength (20 MHz) and 37 °C, ref Wang and Westmoreland ([2009])) was 3.20 mM⁻¹ s⁻¹.
As for `CC(C(=O)[O-])N1CCN(C(C)C(=O)O)CCN(C(C)C(=O)[O-])CCN(C(C)C(=O)O)CC1.[Mn+2]` (centres unmarked) [[Mn(H2DOTMA)]], the r1p in data set [4] (setting [7]) is 2.98 mM⁻¹ s⁻¹.
Consider `O=C([O-])CN1CCNCCNCCN(CC(=O)[O-])CC1.[Mn+2]` [[Mn(cis-DO2A)]], for which, in data set [3] (ref Garda et al. ([2016])), the “k1 (proton-assisted dissociation)” value is 100 M⁻¹ s⁻¹, the “k2 (proton-assisted dissociation)” value was 1.6 × 10^6 M^−2s^−1 and the “t1/2 pH = 7.4 cM = 10^−5 M” value is listed as 58 h. Moreover, the r1p in data set [4] (ref Rolla et al. ([2013])) was 2.10^[a] mM^−1s^−1.
`CN(C)C(=O)CN1CCNCCNCCN(CC(=O)N(C)C)CC1.[Mn+2]` [[Mn(cis-DO2AM^Me2)]^2+]: in data set [3] (setting [8]), the “k1 (proton-assisted dissociation)” value is 8.7 M⁻¹ s⁻¹, the “t1/2 0.1 M HCl” value was 0.0132 min and the “t1/2 pH = 7.4 cM = 10^−5 M” value was 556 h. For the same compound, in data set [4] (ref Forgács et al. ([2016])), the r1p is 2.50^[h] mM^−1s^−1.
With `O=C([O-])CN1CCNCCN(CC(=O)[O-])CCNCC1.[Mn+2]` [[Mn(trans-DO2A)]], in data set [3] (ref Garda et al. ([2016])), the “k1 (proton-assisted dissociation)” value was 85 M⁻¹ s⁻¹, the “k2 (proton-assisted dissociation)” value was 3.0 × 10^6 M^−2s^−1 and the “t1/2 pH = 7.4 cM = 10^−5 M” value is on record as 48 h. The r1p in data set [4] (ref Rolla et al. ([2013])) is 1.50^[a] mM^−1s^−1.
Consider `CN(C)C(=O)CN1CCN(CC(=O)N(C)C)CCN(Cc2ccccc2)CCN(Cc2ccccc2)CC1` [cis-Bz2DO2AM^Me2], for which, in data set [1] (setting [9]), the “log K1H” value is on record as 11.11, the “log K2H” value is recorded as 8.22 and the “Σ log K2H” value is 19.33. In data set [2] (setting [8]), the “log KML” value is reported as 11.54, the “log KMLOH” value was 10.44 and the pMn is recorded as 6.00.
With `O=C(CN1CCNCCNCCN(CC(=O)NCc2ccccc2)CC1)NCc1ccccc1` [cis-DO2AM^Bz2], in data set [1] (setting [9]), the “log K1H” value is recorded as 9.62, the “log K2H” value is reported as 6.90 and the “Σ log K2H” value was 16.52. Also, in data set [2] (setting [9]), the “log KML” value is given as 10.72, the “log KMLOH” value is given as 9.44 and the pMn is 6.69.
`CN(C)C(=O)CN1CCNCCNCCN(CC(=O)N(C)C)CC1` [cis-DO2AM^Me2]: in data set [1] (setting [8]), the “log K1H” value is reported as 10.14, the “log K2H” value was 8.38 and the “Σ log K2H” value is reported as 18.52. In addition, in data set [2] (setting [8]), the “log KML” value is reported as 12.64 and the pMn is given as 6.98.
Consider `O=C(O)CN1CCNCCNCCN(CC(=O)O)CC1` [cis-DO2A], for which, in data set [1] (ref Garda et al. ([2016])), the “Σ log K2H” value is 20.95, the “log K1H” value is 11.44, the “log K2H” value is given as 9.51 and the “log K3H” value is given as 4.14. For the same compound, in data set [1] (ref Garda et al. ([2016])), the “log K4H” value is 1.55. For the same compound, in data set [2] (ref Garda et al. ([2016])), the “log KML” value is 15.68, the “log KMLH” value is 4.15 and the pMn is 7.27.
As for `O=C(O)CN1CCNCCN(CC(=O)O)CCNCC1` [trans-DO2A], in data set [1] (ref Garda et al. ([2016])), the “Σ log K2H” value is reported as 21.44, the “log K1H” value is 11.69, the “log K2H” value is 9.75 and the “log K3H” value is 3.97. The “log K4H” value in data set [1] (ref Garda et al. ([2016])) is reported as 2.68. In data set [2] (ref Garda et al. ([2016])), the “log KML” value is 14.64, the “log KMLH” value is reported as 4.40 and the pMn is reported as 6.52.
